Test results reported in US10494380B2, “Nitrogen-containing tricyclic derivatives having HIV replication inhibitory activity” (priority 2015, dated 2019).
Read-outs that look alike come from different tables or passages of the source.

Experiments:
[1] = tested on: T125A mutant virus (HIV-1 NL-432 recombinant molecular clone, IN gene); assay: HIV replication inhibition assay against integrase 124/125 mutant virus (Test Example 2); assay type: cell-based
Outline: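 EC50 is the compound concentration blocking half of virus-induced cell death, measured by MTT (OD 560 nm, 690 nm reference) after 4 days at 37 °C. Integrase 124/125 mutant NL-432 virus from transfected 293T cells (60 pfu) was added to 2.5×10^4 MT-4 cells with compound.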

HIV = assay type: cell-based; conditions: EC50 in the presence of human serum (25%) versus without human serum, MT-4 cells
Outline: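 HIV-infected MT-4 cells (3×10^4/well, infected 1 h at 37° C) are grown 4 days with compound that was first mixed 1 h with human serum or with medium only. Potency shift is the EC50 with serum divided by the EC50 without serum.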

HIV (HTLV-IIIB strain) = assay: HIV replication inhibition assay (Test Example 1; MT-4 cells, MTT); assay type: cell-based; conditions: HIV (HTLV-IIIB strain), MT-4 cells, MTT, four days; for EC50: read-out: EC50; for EC90: read-out: EC90
Procedure: HIV (HTLV-IIIB strain) persistent infected human T cell strain Molt-4 clone8 was cultured in RPMI-1640 medium supplemented with 10% fetal bovine serum and the supernatant was filtered, then the virus titer was measured and stored at −80° C. Each anti-human immunodeficiency virus active substance was diluted with the above culture medium to the designated concentration, which was dispensed into 96-well microtiter plate by 50 μL. Next, 100 μL of MT-4 cell suspension (2.5×10^4 cells) was dispensed into each well, then 50 μl of the above HIV-containing supernatant diluted with the above culture medium was added thereto (60 pfu (plaque forming unit)).
Cell mixture was cultured at 37° C. in CO2 incubator for four days, then 30 μL of MTT (3-(4,5-dimethylthiazole-2-yl)-2,5-diphenyltetrazolyum bromide) reagent (5 mg/mL in PBS) was added to all wells followed by incubation for 1 hour. In this step, MTT was reduced to insoluble formazan in living cells. To elute generated formazan 150 μL of the culture supernatant was removed from all wells, then 150 μL of cell lysis solution (10% Triton X-100 and 0.4% (v/v)-HCl containing isopropanol) was added thereto, followed by shaking with a plate mixer. The formazan was measured with micro plate reader at OD: 560 nm and 690 nm (reference wavelength) and the result was compared with the reference wells. EC50 and EC90 mean the compound concentration at which cytotoxicity caused by virus infection is inhibited 50% and 90%, respectively.

[2] = tested on: sheep red blood cells (RBC); assay: Photohemolysis test (Test Example 13); assay type: cell-based; conditions: 0.0008 to 0.1 w/v %, 10 J/cm2 UV-irradiation (290-400 nm)
From the text: Aliquots of sheep red blood cells (RBC) suspension prepared with medium to make a 2.5 v/v % concentration are dispensed into microplates. The compound of the present invention was desolved with a vehicle to make target concentrations and then these solutions were immediately added (in concentrations of 0.0008 to 0.1 w/v %) into the microplates. The mixtures on the microplates were exposed to 10 J/cm2 of UV-irradiation (UV-A and UV-B, 290-400 nm) with a GL20SE lamp (SANKYO DENKI) and a FL20S-BLB lamp (Panasonic). After the UV-irradiation, the mixtures were centrifuged. Aliquots of supernatant were transferred to a microplate. Absorbance of the supernatants was measured at 540 nm and 630 nm for judgement of the potential of phototoxicity. In the study, two endpoints were evaluated in biomembrane impairment (% of photohemolysis index; PI) and hyperoxidation of lipid membrane (methemoglobin formation; met-Hb) with the absorbance at 540 nm and 630 nm, respectively. PI and met-Hb were assessed based on the negative criteria (−), PI<10% and changes in absorbance at 630 nm<0.05, respectively. All else was judged as positive (+).

CYP2C9 = CYP2C9 (Homo sapiens (Human), UniProt P11712); assay: CYP inhibition assay, tolbutamide methyl-hydroxylation (Test Example 4); assay type: in vitro ADME; conditions: pooled human hepatic microsome, 100 μmol/L tolbutamide, 15 minutes, 37° C.
Procedure: Using commercially available pooled human hepatic microsome, and employing, as markers, 7-ethoxyresorufin O-deethylation (CYP1A2), tolbutamide methyl-hydroxylation (CYP2C9), mephenytoin 4′-hydroxylation (CYP2C19), dextromethorphan O-demethylation (CYP2D6), and terfenadine hydroxylation (CYP3A4) as typical substrate metabolism reactions of human main five CYP enzyme forms (CYP1A2, 2C9, 2C19, 2D6, 3A4) an inhibitory degree of each metabolite production amount by a test compound was assessed.
The reaction conditions were as follows: substrate, 0.5 μmol/L ethoxyresorufin (CYP1A2), 100 μmol/L tolbutamide (CYP2C9), 50 μmol/L S-mephenytoin (CYP2C19), 5 μmol/L dextromethorphan (CYP2D6), 1 μmol/L terfenedine (CYP3A4); reaction time, 15 minutes; reaction temperature, 37° C.; enzyme, pooled human hepatic microsome 0.2 mg protein/mL; test drug concentration, 1, 5, 10, 20 μmol/L (four points).
Each five kinds of substrates, human hepatic microsome, and a test drug in 50 mmol/L Hepes buffer as a reaction solution was added to a 96-well plate as the composition ad described above, NADPH, as a coenzyme was added to initiate metabolism reactions as markers and, after the incubation at 37° C. for 15 minutes, a methanol/acetonitrile=1/1 (V/V) solution was added to stop the reaction. After the centrifugation at 3000 rpm for 15 minutes, resorufin (CYP1A2 metabolite) in the supernatant was quantified by a fluorescent multilabel counter and tolbutamide hydroxide (CYP2C9 metabolite), mephenytoin 4′ hydroxide (CYP2C19 metabolite), dextrorphan (CYP2D6 metabolite), and terfenadine alcohol (CYP3A4 metabolite) were quantified by LC/MS/MS.

[3] = Human immunodeficiency virus 1, MT4, read-out: EC50 against T125A mutant virus, T125A mutant virus (HIV-1 NL-432 IN gene), MT-4 cells, MTT
[4] = Human immunodeficiency virus 1, MT4, 96 h
[5] = T125A mutant virus (HIV-1 NL-432 IN gene), MT-4 cells, MTT, read-out: EC50 against T125A mutant virus

Chain of CYP2C9 (P11712 whole entry): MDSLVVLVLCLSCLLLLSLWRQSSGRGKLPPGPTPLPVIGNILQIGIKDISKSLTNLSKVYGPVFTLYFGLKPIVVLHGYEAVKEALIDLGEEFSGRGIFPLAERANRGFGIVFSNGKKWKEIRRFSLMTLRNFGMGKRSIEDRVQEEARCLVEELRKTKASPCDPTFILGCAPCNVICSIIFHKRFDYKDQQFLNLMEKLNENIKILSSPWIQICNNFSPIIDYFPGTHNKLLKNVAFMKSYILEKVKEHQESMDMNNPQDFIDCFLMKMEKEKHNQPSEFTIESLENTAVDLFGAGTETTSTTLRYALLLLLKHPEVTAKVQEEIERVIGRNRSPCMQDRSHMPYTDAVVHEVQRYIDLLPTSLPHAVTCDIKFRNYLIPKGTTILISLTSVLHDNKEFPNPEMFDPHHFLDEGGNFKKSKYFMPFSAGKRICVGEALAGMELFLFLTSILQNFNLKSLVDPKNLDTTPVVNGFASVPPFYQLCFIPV

| Structure (SMILES) | EC50 [1, 3] [nM] | Potency shift value (HIV) | EC50 (HIV (HTLV-IIIB strain); [4]) [nM] | EC90 (HIV (HTLV-IIIB strain); [4]) [nM] | Photohemolysis test, potential of phototoxicity (PI and met-Hb) [2] | IC50 (CYP2C9) [nM] | EC50 [1, 5] [nM] | EC50 (HIV (HTLV-IIIB strain)) [nM] | EC90 (HIV (HTLV-IIIB strain)) [nM] |
| --- | --- | --- | --- | --- | --- | --- | --- | --- | --- |
| Cc1ccc(-c2c([C@H](OC(C)(C)C)C(=O)O)c(C)c3c4c2cc(C)n4CCN3C)cc1 [Compound I-001] | 4.7 | 13 | 0.69 | 1.1 | (−) (negative criteria (−), PI<10% and changes in absorbance at 630 nm<0.05, respectively) |  |  |  |  |
| Cc1c([C@H](OC(C)(C)C)C(=O)O)c(-c2ccc(Cl)cc2)c2cc(C)n3c2c1N(C)CC3 [Compound I-012] | 3.8 | 13 | 0.77 | 1.1 | (−) (negative criteria (−), PI<10% and changes in absorbance at 630 nm<0.05, respectively) |  |  |  |  |
| COCCN1CCn2c(C)cc3c(-c4ccc(C)cc4)c([C@H](OC(C)(C)C)C(=O)O)c(C)c1c32 [Compound I-026] | 13 | 13 | 0.99 | 1.6 |  | > 20000 |  |  |  |
| Cc1c([C@H](OC(C)(C)C)C(=O)O)c(-c2ccc(Cl)cc2)c2cc(C)n3c2c1N(c1ncccn1)CC3 [Compound I-085] |  | 22 |  |  | (−) (negative criteria (−), PI<10% and changes in absorbance at 630 nm<0.05, respectively) |  | 3.7 | 0.54 | 0.58 |
| Cc1ccc(-c2c([C@H](OC(C)(C)C)C(=O)O)c(C)c3c4c2cc(C)n4CCN3c2ncc(N3CCN(C)CC3)cn2)cc1 [Compound I-204] |  | 3.6 |  |  |  |  | 9.5 | 4.1 | 5.8 |
| COc1cnc(N2CCn3c(C)cc4c(-c5ccc(C)cc5O)c([C@H](OC(C)(C)C)C(=O)O)c(C)c2c43)nc1 [Compound I-205] |  | 32 |  |  |  |  | 63 | 16 | 35 |
| Cc1ccc(-c2c([C@H](OC(C)(C)C)C(=O)O)c(C)c3c4c2cc(C)n4CCN3c2ncc(C3CCN(C)CC3)cn2)cc1 [Compound I-213] |  | 3.9 |  |  |  |  | 31 | 12 | 19 |
| COc1cnc(N2CCn3c(C)cc4c(-c5ccc(C)cc5)c([C@H](OC(C)(C)C)C(=O)O)c(Cl)c2c43)nc1 [Compound I-226] |  | 26 |  |  |  |  | 3.6 | 1.2 | 1.6 |
| Cc1ccc(-c2c([C@H](OC(C)(C)C)C(=O)O)c(C)c3c4c2cc(C)n4CCN3c2noc(C)n2)cc1 [Compound I-227] | 4.1 | 15 | 1 | 1.4 |  |  |  |  |  |
| COc1cnc(N2CCn3c(C)cc4c(-c5c(F)cc(C)cc5F)c([C@H](OC(C)(C)C)C(=O)O)c(C)c2c43)nc1 [Compound I-230] | 6.7 | 24 | 1.8 | 3.3 |  |  |  |  |  |
| Cc1ccc(-c2c([C@H](OC(C)(C)C)C(=O)O)c(C)c3c4c2cc(C)n4CCN3c2ncc(C)cn2)cc1 [Compound I-235] | 2.8 | 46 | 1.6 |  |  |  |  |  |  |
| Cc1c([C@H](OC(C)(C)C)C(=O)O)c(-c2ccc(Cl)cc2)c2cc(C)n3c2c1N(c1ncc(N2CCOCC2)cn1)CC3 [Compound I-246] | 4.5 | 23 | 2.3 | 2.5 |  |  |  |  |  |
| Cc1c([C@H](OC(C)(C)C)C(=O)O)c(-c2ccc(Cl)cc2)c2cc(C)n3c2c1N(c1ncc(OCCO)cn1)CC3 [Compound I-254] | 17 | 10 | 7.9 | 13 |  |  |  |  |  |
| COCCCOc1cnc(N2CCn3c(C)cc4c(-c5ccc(Cl)cc5)c([C@H](OC(C)(C)C)C(=O)O)c(C)c2c43)nc1 [Compound I-255] | 5.1 | 22 | 1.6 | 2.4 |  |  |  |  |  |
| Cc1ccc(-c2c([C@H](OC(C)(C)C)C(=O)O)c(Cl)c3c4c2cc(C)n4CCN3CCN(C)C)cc1 [Compound I-265] | 44 | 2.5 | 13 | 30 |  |  |  |  |  |
| [2H]C([2H])([2H])Oc1cnc(N2CCn3c(C)cc4c(-c5ccc(C)cc5)c([C@H](OC(C)(C)C)C(=O)O)c(C)c2c43)nc1 [Compound I-266] | 3.7 | 23 | 1.3 | 2.1 |  |  |  |  |  |
| Cc1ccc(-c2c([C@H](OC(C)(C)C)C(=O)O)c(C)c3c4c2cc(C)n4CCN3c2ncc(OCC3COC3)cn2)cc1 [Compound I-268] | 4.8 | 19 | 1.5 | 2.1 |  |  |  |  |  |
| Cc1ccc(-c2c([C@H](OC(C)(C)C)C(=O)O)c(C)c3c4c2cc(C)n4CCN3c2ncc(N3CCOCC3)cn2)cc1 [Compound I-272] | 4.3 | 16 | 1.6 | 2 |  |  |  |  |  |
| Cc1ccc(-c2c([C@H](OC(C)(C)C)C(=O)O)c(C)c3c4c2cc(C)n4CCN3c2ncc(OCCN3CCOCC3)cn2)cc1 [Compound I-276] | 5.1 | 5.9 | 1.5 | 2.5 |  |  |  |  |  |
| Cc1ccc(-c2c([C@H](OC(C)(C)C)C(=O)O)c(C)c3c4c2cc(C)n4CCN3c2ncc(O[C@@H]3CCN(C)C3)cn2)cc1 [Compound I-279] | 13 | 3.5 | 5.1 | 7.7 |  |  |  |  |  |
| Cc1ccc(-c2c([C@H](OC(C)(C)C)C(=O)O)c(C)c3c4c2cc(C)n4CCN3c2ncc(OCF)cn2)cc1 [Compound I-282] | 4 | 36 | 1.4 | 2.1 |  |  |  |  |  |
| Cc1ccc(-c2c([C@H](OC(C)(C)C)C(=O)O)c(C)c3c4c2cc(C)n4CCN3c2ccc(C)nn2)cc1 [Compound I-287] | 5.1 | 12 | 1.4 | 2.2 |  |  |  |  |  |
